Data: ChEMBL document CHEMBL1140309, “p53 Activation by small molecules: application in oncology” (J Med Chem, 2005)

Biological target: Tumour suppressor p53/oncoprotein Mdm2 (Homo sapiens, UniProt P04637+Q00987)
Assay: Inhibitory activity against MDM2 (murine double minute-2 gene) binding to p53
Type: protein assay

Sequence of Tumour suppressor p53/oncoprotein Mdm2 (P04637 whole entry): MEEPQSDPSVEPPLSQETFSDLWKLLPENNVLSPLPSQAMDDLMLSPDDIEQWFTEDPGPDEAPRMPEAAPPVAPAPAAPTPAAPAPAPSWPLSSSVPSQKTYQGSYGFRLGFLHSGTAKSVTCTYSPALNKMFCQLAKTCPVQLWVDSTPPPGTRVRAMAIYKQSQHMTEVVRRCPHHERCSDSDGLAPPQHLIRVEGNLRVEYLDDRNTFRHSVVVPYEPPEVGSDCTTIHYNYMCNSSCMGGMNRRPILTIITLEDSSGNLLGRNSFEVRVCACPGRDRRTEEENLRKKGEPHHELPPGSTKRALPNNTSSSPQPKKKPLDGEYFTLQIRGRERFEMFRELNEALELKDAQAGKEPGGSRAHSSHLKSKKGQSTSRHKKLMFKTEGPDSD
Sequence of Tumour suppressor p53/oncoprotein Mdm2 (Q00987 whole entry): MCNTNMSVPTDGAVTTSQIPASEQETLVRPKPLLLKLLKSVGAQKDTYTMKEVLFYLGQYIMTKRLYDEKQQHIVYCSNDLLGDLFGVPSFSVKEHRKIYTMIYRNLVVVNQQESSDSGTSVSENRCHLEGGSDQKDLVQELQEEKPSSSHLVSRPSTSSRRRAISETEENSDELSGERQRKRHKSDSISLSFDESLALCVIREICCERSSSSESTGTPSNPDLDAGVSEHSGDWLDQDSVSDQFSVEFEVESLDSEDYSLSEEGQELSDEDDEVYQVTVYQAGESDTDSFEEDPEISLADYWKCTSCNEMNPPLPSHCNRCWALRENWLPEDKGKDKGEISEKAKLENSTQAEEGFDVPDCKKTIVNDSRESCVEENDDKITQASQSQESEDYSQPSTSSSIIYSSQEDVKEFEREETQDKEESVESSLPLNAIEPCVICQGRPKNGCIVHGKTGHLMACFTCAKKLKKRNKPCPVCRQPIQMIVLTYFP

CC(C)Oc1ccc(C(=O)NS(=O)(=O)c2ccc(NN=C3C(=O)N(c4ccccc4)N(c4ccccc4)C3=O)cc2)cc1
IC50: 30 µM
